Measurements: ChEMBL document CHEMBL1148080, “Identification of an activator of the retinoid X receptor” (J Nat Prod, 1994)
Active and inactive are the calls of the source. The rule behind the calls is not given here.

Target: T1, Retinoic acid receptor alpha (Homo sapiens) (UniProt P10276)
T1 sequence (whole entry): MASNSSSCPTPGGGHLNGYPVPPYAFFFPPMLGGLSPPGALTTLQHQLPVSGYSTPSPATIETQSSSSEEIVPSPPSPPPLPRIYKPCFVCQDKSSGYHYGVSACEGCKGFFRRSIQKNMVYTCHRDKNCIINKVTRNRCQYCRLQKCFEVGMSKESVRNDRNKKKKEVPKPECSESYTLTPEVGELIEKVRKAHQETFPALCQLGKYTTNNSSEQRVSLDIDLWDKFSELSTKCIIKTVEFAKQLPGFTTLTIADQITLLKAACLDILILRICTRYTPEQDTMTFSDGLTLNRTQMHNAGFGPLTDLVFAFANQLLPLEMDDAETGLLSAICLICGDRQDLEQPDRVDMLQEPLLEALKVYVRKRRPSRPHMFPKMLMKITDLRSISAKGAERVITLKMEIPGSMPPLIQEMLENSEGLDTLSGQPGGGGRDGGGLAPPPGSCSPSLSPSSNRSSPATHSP
Assay: Transactivation of RARalpha expressed in mammalian cells assessed as effect on palindromic thyroid hormone response element-driven transcriptional activation by luciferase reporter gene assay
Type: cell-based

- Activity: Active
SMILES: CC1=C(/C=C/C(C)=C\C=C\C(C)=C\C(=O)O[C@@H]2O[C@H](CO)[C@@H](O)[C@H](O)[C@H]2O)C(C)(C)CCC1
